Like-named read-outs stand apart in the source and are kept apart here.

What all share (type): biochemical
Assay [1] concerns the target T1, CYP3A4 (Homo sapiens, UniProt P08684). The experiment in a line: Determination of compound Kiapp against recombinant CYP3A4 enzyme (BFC fluorescent substrate). In outline: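 Kiapp derived from initial velocities over the first 5 min of BFC (5 uM) oxidation, using Morrison's tight-binding equation for non-partial and Szedlacsek's for partial inhibitors. Inhibitor first pre-incubated ≥30 min with CYP3A4 (5.5 or 8 nM, ±b5) in pH 7.0 phosphate/TCEP/2% DMF at room temperature; 200 uM NADPH initiated.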

Assay [2] has as its target T1, CYP3A4. As to the kind of experiment: Determination of IC50 against CYP3A4 by measurement of inhibition of midazolam metabolism (human liver microsomes, 1-hydroxymidazolam by LC-MS/MS). On the set-up: 0.1 mg/mL human liver microsomes. The conditions noted are these: 2 μM midazolam, 0.1 mg/mL human liver microsomes. The essentials:
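Human liver microsomes (0.1 mg/mL) incubated 8 min with 2 μM midazolam and 1 mM NADPH in 100 mM potassium phosphate, pH 7.4. 1-Hydroxymidazolam quantified by LC-MS/MS (MRM) as peak area ratio to internal standard against a metabolite standard curve.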
On the technique in general: Microsomes from liver hold many membrane-bound enzymes, among them those of drug oxidation.

Assay [3] has as its target T1, CYP3A4. As to the kind of experiment: Determination of IC50 against CYP3A4 by measurement of inhibition of testosterone metabolism (human liver microsomes, 6-β-OH-testosterone by LC-MS/MS). Also noted: 0.1 mg/mL human liver microsomes. To be noted: read-out: IC50 (Testo.). The essentials: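 6-β-OH-testosterone formation was read by LC-MS/MS (MRM, internal standard, standard curve) after eight minutes. Reaction contained testosterone 25 μM, NADPH 1 mM and microsomal protein 0.1 mg/mL in pH 7.4 potassium phosphate (100 mM).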

The mark [4] stands for this setting: Baculo. enzyme preparation, read-out: Kiapp (BFC, Baculo.).
[5] abbreviates: Super. enzyme preparation, read-out: Kiapp (BFC, Super.).

T1 sequence (P08684 whole entry): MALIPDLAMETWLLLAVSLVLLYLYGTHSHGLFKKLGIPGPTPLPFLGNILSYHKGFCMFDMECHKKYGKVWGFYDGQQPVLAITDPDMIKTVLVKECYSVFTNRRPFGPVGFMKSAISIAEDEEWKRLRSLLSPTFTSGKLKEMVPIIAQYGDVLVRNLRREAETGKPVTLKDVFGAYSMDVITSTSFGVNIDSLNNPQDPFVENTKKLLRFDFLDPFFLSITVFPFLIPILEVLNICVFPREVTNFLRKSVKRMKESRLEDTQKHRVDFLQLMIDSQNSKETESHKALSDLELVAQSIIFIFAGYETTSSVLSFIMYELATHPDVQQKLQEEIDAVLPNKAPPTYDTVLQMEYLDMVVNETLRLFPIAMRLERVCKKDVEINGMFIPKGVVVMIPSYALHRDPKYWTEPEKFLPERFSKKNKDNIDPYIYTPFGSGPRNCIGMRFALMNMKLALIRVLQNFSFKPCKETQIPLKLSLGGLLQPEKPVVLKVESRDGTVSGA

A word on the IC50: it is the concentration at which inhibition is half-maximal. Consider `COc1cncc(NS(=O)(=O)c2ccccc2C(=O)NCCc2ccccc2OC)c1` [Example 263, N-[2-(2-methoxyphenyl)ethyl]-2-{[(5-methoxypyridin-3-yl)amino]sulfonyl}benzamide], for which the results for the Ki on CYP3A4 [1] (setting [4]) and on CYP3A4 [1] (setting [5]) were 54.7 nM and 5.4 nM, respectively. In addition, the figures for the IC50 at CYP3A4 [2] and at CYP3A4 [3] were 9 nM and 11 nM, respectively.
As to `COc1cncc(NS(=O)(=O)c2ccc(OC3CCNCC3)cc2C(=O)NCc2ccc(F)cc2)c1` [Example 264, N-(4-fluorobenzyl)-2-{[(5-methoxypyridin-3-yl)amino]sulfonyl}-5-(piperidin-4-yloxy)benzamide], the results for the Ki on CYP3A4 [1] (setting [4]) and on CYP3A4 [1] (setting [5]) were 34.7 nM and 9.88 nM, respectively. The IC50 on CYP3A4 [2] was 26 nM; at CYP3A4 [3] it was 58 nM.
The matching figures for `COc1cncc(NS(=O)(=O)c2ccc(OCCN3CCOCC3)cc2C(=O)NCc2ccc(F)cc2)c1` [Example 265, N-(4-fluorobenzyl)-2-{[(5-methoxypyridin-3-yl)amino]sulfonyl}-5-(2-morpholin-4-ylethoxy)benzamide]: 29.6 nM, 12.6 nM, 23 nM and 41 nM.
The matching figures for `COc1cncc(NS(=O)(=O)c2ccc(OCCCN(C)C)cc2C(=O)NCc2ccc(F)cc2)c1` [Example 266, 5-[3-(dimethylamino)propoxy]-N-(4-fluorobenzyl)-2-{[(5-methoxypyridin-3-yl)amino]sulfonyl}benzamide]: 145 nM, 26.8 nM, 54 nM and 109 nM.
On to `COc1cncc(NS(=O)(=O)c2ccc(F)cc2C(=O)N2CCCC(C)C2)c1` (stereo not shown) [Example 267, 4-fluoro-N-(5-methoxypyridin-3-yl)-2-[(3-methylpiperidin-1-yl)carbonyl]benzenesulfonamide], for which the Ki is 270 nM on CYP3A4 [1] (setting [4]) and 43.2 nM on CYP3A4 [1] (setting [5]). For the same compound, the IC50 at CYP3A4 [2] was 120 nM; at CYP3A4 [3] it was 216 nM.
`CCCCCN(C)C(=O)c1cc(Cl)ccc1S(=O)(=O)Nc1cncc(OC)c1` [Example 268, 5-chloro-2-{[(5-methoxypyridin-3-yl)amino]sulfonyl}-N-methyl-N-pentylbenzamide]: the Ki was determined as 110 nM at CYP3A4 [1] (setting [4]) and 19.4 nM on CYP3A4 [1] (setting [5]). Also, the IC50 at CYP3A4 [2] worked out at 44 nM; at CYP3A4 [3], 63 nM.
The matching figures for `CCOc1ccncc1NS(=O)(=O)c1ccccc1C(=O)NCCc1ccccc1C` [Example 269, 2-{[(4-ethoxypyridin-3-yl)amino]sulfonyl}-N-[2-(2-methylphenyl)ethyl]benzamide]: 18.1 nM, 3.31 nM, 9 nM and 13 nM.
The matching figures for `CCOc1ccncc1NS(=O)(=O)c1ccccc1C(=O)NC(C)C1CC1` (stereo not shown) [Example 270, N-(1-cyclopropylethyl)-2-{[(4-ethoxypyridin-3-yl)amino]sulfonyl}benzamide]: 352 nM, 39.8 nM, 22 nM and 52 nM.
Regarding `CCOc1ccncc1NS(=O)(=O)c1ccccc1C(=O)NCCC(C)C` [Example 271, 2-{[(4-ethoxypyridin-3-yl)amino]sulfonyl}-N-(3-methylbutyl)benzamide], the Ki at CYP3A4 [1] (setting [4]) was 118 nM; on CYP3A4 [1] (setting [5]), 17.2 nM. For the same compound, the IC50 on CYP3A4 [2] is 18 nM; on CYP3A4 [3], 21 nM.
For the compound `CCCCCN(C)C(=O)c1ccccc1S(=O)(=O)Nc1cnccc1OCC` [Example 272, 2-{[(4-ethoxypyridin-3-yl)amino]sulfonyl}-N-methyl-N-pentylbenzamide], the Ki was 67.3 nM on CYP3A4 [1] (setting [4]) and 5.68 nM on CYP3A4 [1] (setting [5]). The figures for the IC50 on CYP3A4 [2] and on CYP3A4 [3] were 12 nM and 19 nM, respectively.
On the same counts, the results for `CCCCN(C)C(=O)c1ccccc1S(=O)(=O)Nc1cnccc1OCC` [Example 274, N-butyl-2-{[(4-ethoxypyridin-3-yl)amino]sulfonyl}-N-methylbenzamide] are 70.1 nM, 8.85 nM, 25 nM and 46 nM.
As for `COc1ccncc1NS(=O)(=O)c1ccccc1C(=O)NCCc1ccccc1C` [Example 275, 2-{[(4-methoxypyridin-3-yl)amino]sulfonyl}-N-[2-(2-methylphenyl)ethyl]benzamide], the Ki stood at 42.9 nM at CYP3A4 [1] (setting [4]) and 3.76 nM on CYP3A4 [1] (setting [5]). In addition, the IC50 is 9 nM on CYP3A4 [2] and 7 nM at CYP3A4 [3].
Consider `COc1ccncc1NS(=O)(=O)c1ccccc1C(=O)NC(C)C1CC1` (stereo not shown) [Example 276, N-(1-cyclopropylethyl)-2-{[(4-methoxypyridin-3-yl)amino]sulfonyl}benzamide], for which the values for the Ki on CYP3A4 [1] (setting [4]) and at CYP3A4 [1] (setting [5]) were 563 nM and 62.9 nM, respectively. Moreover, the IC50 at CYP3A4 [2] was found to be 71 nM; at CYP3A4 [3] it was 134 nM.
Regarding `COc1ccncc1NS(=O)(=O)c1ccccc1C(=O)NCCC(C)C` [Example 277, 2-{[(4-methoxypyridin-3-yl)amino]sulfonyl}-N-(3-methylbutyl)benzamide], the Ki was 459 nM on CYP3A4 [1] (setting [4]) and 47.9 nM on CYP3A4 [1] (setting [5]). Besides, the IC50 stood at 53 nM at CYP3A4 [2] and 65 nM at CYP3A4 [3].
With `CCCCCN(C)C(=O)c1ccccc1S(=O)(=O)Nc1cnccc1OC` [Example 278, 2-{[(4-methoxypyridin-3-yl)amino]sulfonyl}-N-methyl-N-pentylbenzamide], the figures for the Ki at CYP3A4 [1] (setting [4]) and at CYP3A4 [1] (setting [5]) were 131 nM and 11.9 nM, respectively. The values for the IC50 on CYP3A4 [2] and at CYP3A4 [3] were 31 nM and 66 nM, respectively.
The matching figures for `COc1ccncc1NS(=O)(=O)c1ccccc1C(=O)N(C)C(C)C` [Example 279, N-isopropyl-2-{[(4-methoxypyridin-3-yl)amino]sulfonyl}-N-methylbenzamide]: more than 1000 nM, 95.2 nM, 123 nM and 337 nM.
Regarding `CCCCN(C)C(=O)c1ccccc1S(=O)(=O)Nc1cnccc1OC` [Example 280, N-butyl-2-{[(4-methoxypyridin-3-yl)amino]sulfonyl}-N-methylbenzamide], the Ki at CYP3A4 [1] (setting [4]) was 400 nM; at CYP3A4 [1] (setting [5]) it was 52.5 nM. The values for the IC50 at CYP3A4 [2] and on CYP3A4 [3] were 39 nM and 95 nM, respectively.
Take `Cc1cncc(NS(=O)(=O)c2ccccc2C(=O)N(C)C(C)C)c1` [Example 281, N-isopropyl-N-methyl-2-{[(5-methylpyridin-3-yl)amino]sulfonyl}benzamide]: the results for the Ki on CYP3A4 [1] (setting [4]) and at CYP3A4 [1] (setting [5]) were 468 nM and 42.6 nM, respectively. For the same compound, the figures for the IC50 at CYP3A4 [2] and at CYP3A4 [3] were 31 nM and 65 nM, respectively.
As to `COc1cncc(NS(=O)(=O)c2ccccc2C(=O)N(C)C(C)C)c1` [Example 282, N-isopropyl-2-{[(5-methoxypyridin-3-yl)amino]sulfonyl}-N-methylbenzamide], the figures for the Ki on CYP3A4 [1] (setting [4]) and on CYP3A4 [1] (setting [5]) were 330 nM and 57.7 nM, respectively. Also, the IC50 on CYP3A4 [2] was 49 nM; at CYP3A4 [3] it was 62 nM.
On the same counts, the results for `CN(Cc1ccc(F)c(F)c1)C(=O)c1ccccc1S(=O)(=O)Nc1cccnc1` [Example 284, N-(3,4-difluorobenzyl)-N-methyl-2-[(pyridin-3-ylamino)sulfonyl]benzamide] are 99.8 nM, 14.2 nM, 15 nM and 49 nM.
The matching figures for `COc1cncc(NS(=O)(=O)c2ccccc2C(=O)N(C)Cc2ccc(F)c(F)c2)c1` [Example 285, N-(3,4-difluorobenzyl)-2-{[(5-methoxypyridin-3-yl)amino]sulfonyl}-N-methylbenzamide]: 26 nM, 7.24 nM, 19 nM and 28 nM.
The matching figures for `Cc1cncc(NS(=O)(=O)c2ccccc2C(=O)N(C)Cc2ccc(F)c(F)c2)c1` [Example 286, N-(3,4-difluorobenzyl)-N-methyl-2-{[(5-methylpyridin-3-yl)amino]sulfonyl}benzamide]: 27.2 nM, 4.06 nM, 7.67 nM and 9.5 nM.
On to `CCOc1cncc(NS(=O)(=O)c2ccccc2C(=O)NC2CCCC2)c1` [Example 287, N-cyclopentyl-2-{[(5-ethoxypyridin-3-yl)amino]sulfonyl}benzamide], for which the Ki stood at 216 nM on CYP3A4 [1] (setting [4]) and 47.7 nM on CYP3A4 [1] (setting [5]). Also, the IC50 on CYP3A4 [2] was found to be 43 nM; on CYP3A4 [3], 99 nM.
On the same counts, the results for `CCOc1cncc(NS(=O)(=O)c2ccccc2C(=O)NCc2ccc(F)c(C(F)(F)F)c2)c1` [Example 288, 2-{[(5-ethoxypyridin-3-yl)amino]sulfonyl}-N-[4-fluoro-3-(trifluoromethyl)benzyl]benzamide] are 2.2 nM, 3.08 nM, 12 nM and 18 nM.
`CCOc1cncc(NS(=O)(=O)c2ccccc2C(=O)N(C)Cc2ccc(F)c(F)c2)c1` [Example 289, N-(3,4-difluorobenzyl)-2-{[(5-ethoxypyridin-3-yl)amino]sulfonyl}-N-methylbenzamide]: the values for the Ki at CYP3A4 [1] (setting [4]) and on CYP3A4 [1] (setting [5]) were 5.9 nM and 4.97 nM, respectively. The results for the IC50 on CYP3A4 [2] and on CYP3A4 [3] were 15 nM and 27 nM, respectively.
